Results as given in patent US10294202B2, “Pyrrolidinones as herbicides” (FMC Corporation, priority 2013, dated 2019).

Legend:
sedge, umbrella = experiment: Test B flooded paddy test; assay type: in vivo, Cyperus difformis; conditions: Flood, scale of 0 to 100 where 0 is no effect and 100 is complete control
In short: (§1)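 Paddy-water application at a 3 cm flood, young plants having two leaves. Water level maintained; greenhouse, 13–15 days; visual 0–100 control rating.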

giant foxtail = experiment: Test A pre-/postemergence herbicide test; assay type: in vivo, Setaria faberii; conditions: for Plant response rating, Foxtail, Giant: 0 to 100 scale
In short: (§2)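 Planted in loam–sand blend; treated the same day preemergence by directed soil spray, while separately grown plants at one- to two-leaf stage got postemergence spray. Compared visually with untreated controls after approximately 10 days; 100 means complete control.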

pigweed = experiment: Test A pre-/postemergence herbicide test; assay type: in vivo, Amaranthus retroflexus; conditions: for Plant response rating, Pigweed: 0 to 100 scale
In short: as §2

ryegrass, Italian = experiment: Test A pre-/postemergence herbicide test; assay type: in vivo, Lolium multiflorum; conditions: for Plant response rating, Ryegrass, Italian: 0 to 100 scale
In short: as §2

rice = experiment: Test B flooded paddy test; assay type: in vivo, Oryza sativa; conditions: Flood, scale of 0 to 100 where 0 is no effect and 100 is complete control
In short: as §1

blackgrass = experiment: Test A postemergence herbicide test; assay type: in vivo, Alopecurus myosuroides; conditions: for Plant response rating, Blackgrass: 125 g ai/ha, 0 to 100 scale, 0 is no effect, 100 is complete control; for Blackgrass plant response rating (0 to 100 scale, 0 is no effect, 100 is complete control): 500 g ai/ha
In short: (§3)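 Potted in loam soil/sand blend; postemergence application at 1–2 leaf stage (2–10 cm). Greenhouse ~10 d. Visual injury vs untreated, 0–100 scale; 100 = complete control.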

kochia = experiment: Test A pre-/postemergence herbicide test; assay type: in vivo, Kochia scoparia; conditions: for Plant response rating, Kochia: 0 to 100 scale
In short: as §2

corn = experiment: Test A pre-/postemergence herbicide test; assay type: in vivo, Zea mays; conditions: Postemergence; for Plant response rating, Corn: 125 g ai/ha, 0 to 100 scale, 0 is no effect, 100 is complete control; for Corn plant response rating (0 to 100 scale, 0 is no effect, 100 is complete control): 500 g ai/ha
In short: as §2

ragweed = experiment: Test A pre-/postemergence herbicide test; assay type: in vivo, Ambrosia elatior; conditions: for Plant response rating, Ragweed: 0 to 100 scale
In short: as §2

ducksalad = experiment: Test B flooded paddy test; assay type: in vivo, Heteranthera limosa; conditions: Flood, scale of 0 to 100 where 0 is no effect and 100 is complete control
In short: as §1

wheat = experiment: Test A pre-/postemergence herbicide test; assay type: in vivo, Triticum aestivum; conditions: Postemergence; for Plant response rating, Wheat: 125 g ai/ha, 0 to 100 scale, 0 is no effect, 100 is complete control; for Wheat plant response rating (0 to 100 scale, 0 is no effect, 100 is complete control): 500 g ai/ha
In short: as §2

galium = experiment: Test A postemergence herbicide test; assay type: in vivo, Galium aparine; conditions: for Plant response rating, Galium: 125 g ai/ha, 0 to 100 scale, 0 is no effect, 100 is complete control; for Galium plant response rating (0 to 100 scale, 0 is no effect, 100 is complete control): 500 g ai/ha
In short: as §3

barnyardgrass [1] = experiment: Test A pre-/postemergence herbicide test; assay type: in vivo, Echinochloa crus-galli; conditions: for Plant response rating, Barnyardgrass: 0 to 100 scale
In short: as §2

barnyardgrass [2] = experiment: Test B flooded paddy test; assay type: in vivo, Echinochloa crus-galli; conditions: Flood, scale of 0 to 100 where 0 is no effect and 100 is complete control
In short: as §1

[3] = 125 g ai/ha, visual rating, 0 no effect, 100 complete control, approximately 10 days, preemergence
[4] = Postemergence, 125 g ai/ha, 0 is no effect, 100 is complete control
[5] = preemergence, 500 g ai/ha, 0 is no effect and 100 is complete control

O=C1NCC(c2cccc(S(F)(F)(F)(F)F)c2)C1C(=O)Nc1ccccc1C(F)(F)F (stereo not drawn) [Compound 215]
Plant response rating, Sedge, Umbrella (sedge, umbrella; 1000 g ai/ha): 0 | Plant response rating, Foxtail, Giant (giant foxtail; [3]): 80 | Plant response rating, Foxtail, Giant (giant foxtail; [4]): 80 | Foxtail, Giant plant response rating (0 to 100 scale, 0 is no effect, 100 is complete control) (giant foxtail; Postemergence, 500 g ai/ha): 80 | Plant response rating, Foxtail, Giant (giant foxtail; [5]): 90 | Plant response rating, Pigweed (pigweed; [3]): 0 | Plant response rating, Pigweed (pigweed; [4]): 50 | Pigweed plant response rating (0 to 100 scale, 0 is no effect, 100 is complete control) (pigweed; Postemergence, 500 g ai/ha): 60 | Plant response rating, Pigweed (pigweed; [5]): 50 | Plant response rating, Ryegrass, Italian (ryegrass, Italian; [3]): 0 | Plant response rating, Ryegrass, Italian (ryegrass, Italian; [4]): 0 | Ryegrass, Italian plant response rating (0 to 100 scale, 0 is no effect, 100 is complete control) (ryegrass, Italian; Postemergence, 500 g ai/ha): 0 | Plant response rating, Ryegrass, Italian (ryegrass, Italian; [5]): 10 | Plant response rating, Rice (rice; 1000 g ai/ha): 0 | Plant response rating, Blackgrass (blackgrass): 30 | Blackgrass plant response rating (0 to 100 scale, 0 is no effect, 100 is complete control) (blackgrass): 50 | Plant response rating, Kochia (kochia; [3]): 0 | Plant response rating, Kochia (kochia; [4]): 0 | Kochia plant response rating (0 to 100 scale, 0 is no effect, 100 is complete control) (kochia; Postemergence, 500 g ai/ha): 0 | Plant response rating, Kochia (kochia; [5]): 0 | Plant response rating, Corn (corn): 0 | Corn plant response rating (0 to 100 scale, 0 is no effect, 100 is complete control) (corn): 0 | Plant response rating, Ragweed (ragweed; [3]): 0 | Plant response rating, Ragweed (ragweed; [4]): 0 | Ragweed plant response rating (0 to 100 scale, 0 is no effect, 100 is complete control) (ragweed; Postemergence, 500 g ai/ha): 10 | Plant response rating, Ragweed (ragweed; [5]): 0 | Plant response rating, Ducksalad (ducksalad; 1000 g ai/ha): 80 | Plant response rating, Wheat (wheat): 0 | Wheat plant response rating (0 to 100 scale, 0 is no effect, 100 is complete control) (wheat): 0 | Plant response rating, Galium (galium): 40 | Galium plant response rating (0 to 100 scale, 0 is no effect, 100 is complete control) (galium): 60 | Plant response rating, Barnyardgrass (barnyardgrass [1]; [3]): 60 | Plant response rating, Barnyardgrass (barnyardgrass [1]; [4]): 50 | Barnyardgrass plant response rating (0 to 100 scale, 0 is no effect, 100 is complete control) (barnyardgrass [1]; Postemergence, 500 g ai/ha): 60 | Plant response rating, Barnyardgrass (barnyardgrass [1]; [5]): 80 | Plant response rating, Barnyardgrass (barnyardgrass [2]; 1000 g ai/ha): 60

O=C1NCC(c2cccc3ccccc23)C1C(=O)Nc1ccccc1F (stereo not drawn) [Compound 216]
Plant response rating, Sedge, Umbrella (sedge, umbrella; 500 g ai/ha): 0 | Plant response rating, Foxtail, Giant (giant foxtail; [3]): 40 | Plant response rating, Foxtail, Giant (giant foxtail; [4]): 0 | Foxtail, Giant plant response rating (0 to 100 scale, 0 is no effect, 100 is complete control) (giant foxtail; Postemergence, 500 g ai/ha): 10 | Plant response rating, Foxtail, Giant (giant foxtail; [5]): 50 | Plant response rating, Pigweed (pigweed; [3]): 0 | Plant response rating, Pigweed (pigweed; [4]): 0 | Pigweed plant response rating (0 to 100 scale, 0 is no effect, 100 is complete control) (pigweed; Postemergence, 500 g ai/ha): 0 | Plant response rating, Pigweed (pigweed; [5]): 0 | Plant response rating, Ryegrass, Italian (ryegrass, Italian; [3]): 0 | Plant response rating, Ryegrass, Italian (ryegrass, Italian; [4]): 0 | Ryegrass, Italian plant response rating (0 to 100 scale, 0 is no effect, 100 is complete control) (ryegrass, Italian; Postemergence, 500 g ai/ha): 0 | Plant response rating, Ryegrass, Italian (ryegrass, Italian; [5]): 0 | Plant response rating, Rice (rice; 500 g ai/ha): 0 | Plant response rating, Blackgrass (blackgrass): 0 | Blackgrass plant response rating (0 to 100 scale, 0 is no effect, 100 is complete control) (blackgrass): 0 | Plant response rating, Kochia (kochia; [3]): 0 | Plant response rating, Kochia (kochia; [4]): 0 | Kochia plant response rating (0 to 100 scale, 0 is no effect, 100 is complete control) (kochia; Postemergence, 500 g ai/ha): 0 | Plant response rating, Kochia (kochia; [5]): 0 | Plant response rating, Corn (corn): 0 | Corn plant response rating (0 to 100 scale, 0 is no effect, 100 is complete control) (corn): 0 | Plant response rating, Ragweed (ragweed; [3]): 0 | Plant response rating, Ragweed (ragweed; [4]): 0 | Ragweed plant response rating (0 to 100 scale, 0 is no effect, 100 is complete control) (ragweed; Postemergence, 500 g ai/ha): 0 | Plant response rating, Ragweed (ragweed; [5]): 0 | Plant response rating, Ducksalad (ducksalad; 500 g ai/ha): 0 | Plant response rating, Wheat (wheat): 0 | Wheat plant response rating (0 to 100 scale, 0 is no effect, 100 is complete control) (wheat): 0 | Plant response rating, Galium (galium): 0 | Galium plant response rating (0 to 100 scale, 0 is no effect, 100 is complete control) (galium): 0 | Plant response rating, Barnyardgrass (barnyardgrass [1]; [3]): 20 | Plant response rating, Barnyardgrass (barnyardgrass [1]; [4]): 0 | Barnyardgrass plant response rating (0 to 100 scale, 0 is no effect, 100 is complete control) (barnyardgrass [1]; Postemergence, 500 g ai/ha): 0 | Plant response rating, Barnyardgrass (barnyardgrass [1]; [5]): 60 | Plant response rating, Barnyardgrass (barnyardgrass [2]; 500 g ai/ha): 0

Cc1ccccc1NC(=O)C1C(=O)NCC1c1ccc(OC(F)F)cc1 (stereo not drawn) [Compound 227]
Plant response rating, Sedge, Umbrella (sedge, umbrella; 500 g ai/ha): 0 | Plant response rating, Foxtail, Giant (giant foxtail; [3]): 80 | Plant response rating, Foxtail, Giant (giant foxtail; [4]): 30 | Foxtail, Giant plant response rating (0 to 100 scale, 0 is no effect, 100 is complete control) (giant foxtail; Postemergence, 500 g ai/ha): 80 | Plant response rating, Foxtail, Giant (giant foxtail; [5]): 90 | Plant response rating, Pigweed (pigweed; [3]): 0 | Plant response rating, Pigweed (pigweed; [4]): 0 | Pigweed plant response rating (0 to 100 scale, 0 is no effect, 100 is complete control) (pigweed; Postemergence, 500 g ai/ha): 0 | Plant response rating, Pigweed (pigweed; [5]): 20 | Plant response rating, Ryegrass, Italian (ryegrass, Italian; [3]): 0 | Plant response rating, Ryegrass, Italian (ryegrass, Italian; [4]): 0 | Ryegrass, Italian plant response rating (0 to 100 scale, 0 is no effect, 100 is complete control) (ryegrass, Italian; Postemergence, 500 g ai/ha): 20 | Plant response rating, Ryegrass, Italian (ryegrass, Italian; [5]): 30 | Plant response rating, Rice (rice; 500 g ai/ha): 0 | Plant response rating, Blackgrass (blackgrass): 0 | Blackgrass plant response rating (0 to 100 scale, 0 is no effect, 100 is complete control) (blackgrass): 40 | Plant response rating, Kochia (kochia; [3]): 20 | Plant response rating, Kochia (kochia; [4]): 0 | Kochia plant response rating (0 to 100 scale, 0 is no effect, 100 is complete control) (kochia; Postemergence, 500 g ai/ha): 40 | Plant response rating, Kochia (kochia; [5]): 20 | Plant response rating, Corn (corn): 0 | Corn plant response rating (0 to 100 scale, 0 is no effect, 100 is complete control) (corn): 0 | Plant response rating, Ragweed (ragweed; [3]): 0 | Plant response rating, Ragweed (ragweed; [4]): 0 | Ragweed plant response rating (0 to 100 scale, 0 is no effect, 100 is complete control) (ragweed; Postemergence, 500 g ai/ha): 0 | Plant response rating, Ragweed (ragweed; [5]): 0 | Plant response rating, Ducksalad (ducksalad; 500 g ai/ha): 90 | Plant response rating, Wheat (wheat): 0 | Wheat plant response rating (0 to 100 scale, 0 is no effect, 100 is complete control) (wheat): 0 | Plant response rating, Galium (galium): 0 | Galium plant response rating (0 to 100 scale, 0 is no effect, 100 is complete control) (galium): 0 | Plant response rating, Barnyardgrass (barnyardgrass [1]; [3]): 20 | Plant response rating, Barnyardgrass (barnyardgrass [1]; [4]): 20 | Barnyardgrass plant response rating (0 to 100 scale, 0 is no effect, 100 is complete control) (barnyardgrass [1]; Postemergence, 500 g ai/ha): 80 | Plant response rating, Barnyardgrass (barnyardgrass [1]; [5]): 50 | Plant response rating, Barnyardgrass (barnyardgrass [2]; 500 g ai/ha): 0
